Experimental data reported in ChEMBL document CHEMBL4622857, “Is GPR146 really the receptor for proinsulin C-peptide?” (Bioorg Med Chem Lett, 2020).
The source made the active and inactive calls. The calls are words filed in the database; no cut-off is given here.

What was measured:
[1] = biological target: G-protein coupled receptor 146 (Homo sapiens) (UniProt Q96CH1); assay: Activation of human GPR146 expressed in HEK293 cells assessed as increase in dynamic mass redistribution response up to 100 uM by DMR assay; type: cell-based
[2] = biological target: G-protein coupled receptor 146 (Homo sapiens) (UniProt Q96CH1); assay: Activation of human GPR146 expressed in HK2 cells assessed as increase in dynamic mass redistribution response up to 100 uM by DMR assay; type: cell-based
[3] = biological target: G-protein coupled receptor 146 (Homo sapiens) (UniProt Q96CH1); assay: Agonist activity at human GPR146 receptor expressed in HEK293 cells assessed as recruitment of beta-arrestin up to 100 uM by PathHunter assay; type: cell-based
[4] = Drug uptake in human HK2 cells at 0.1 to 0.5 uM using Cy3-labeled compound by fluorescence microscopy; type: ADME, cell-based; conditions: hk-2, 0.5 µM
[5] = Drug uptake in CHOK1 cells at 0.1 to 0.5 uM by using Cy3-labeled compound by fluorescence microsocpy; type: ADME, cell-based, Cricetulus griseus; conditions: chinese hamster, cho-k1, 0.5 µM
[6] = Drug uptake in CHOK1 cells expressing human GPR146 at 0.1 to 0.5 uM by using Cy3-labeled compound by fluorescence microsocpy; type: ADME, cell-based, Cricetulus griseus; conditions: chinese hamster, cho-k1, 0.5 µM
[7] = biological target: G-protein coupled receptor 146 (Homo sapiens) (UniProt Q96CH1); assay: Activation of human GPR146 expressed in CHO-K1 cells assessed as increase in dynamic mass redistribution response upto 100 uM by DMR assay; type: cell-based
[8] = biological target: Glucagon-like peptide 1 receptor (Homo sapiens) (UniProt P43220); assay: Activation of human GLP1R expressed in CHO-K1 cells assessed as increase in dynamic mass redistribution response upto 100 uM by DMR assay; type: cell-based
[9] = biological target: G-protein coupled receptor 146 (Homo sapiens) (UniProt Q96CH1); assay: Activation of human GPR146 receptor expressed in HK2 cells assessed as increase in dynamic mass redistribution response by DMR assay; type: cell-based
[10] = biological target: G-protein coupled receptor 146 (Homo sapiens) (UniProt Q96CH1); assay: Activation of human GPR146 receptor expressed in HEK293 cells assessed as increase in dynamic mass redistribution response by DMR assay; type: cell-based
[11] = biological target: G-protein coupled receptor 146 (Homo sapiens) (UniProt Q96CH1); assay: Activation of human GPR146 expressed in CHO-K1 cells assessed as increase in dynamic mass redistribution response at 100 uM by DMR assay; type: cell-based
[12] = biological target: Glucagon-like peptide 1 receptor (Homo sapiens) (UniProt P43220); assay: Activation of human GLP1R expressed in CHO-K1 cells assessed as increase in dynamic mass redistribution response at 100 uM by DMR assay; type: cell-based

Sequence of Glucagon-like peptide 1 receptor (Homo sapiens) (P43220 whole entry): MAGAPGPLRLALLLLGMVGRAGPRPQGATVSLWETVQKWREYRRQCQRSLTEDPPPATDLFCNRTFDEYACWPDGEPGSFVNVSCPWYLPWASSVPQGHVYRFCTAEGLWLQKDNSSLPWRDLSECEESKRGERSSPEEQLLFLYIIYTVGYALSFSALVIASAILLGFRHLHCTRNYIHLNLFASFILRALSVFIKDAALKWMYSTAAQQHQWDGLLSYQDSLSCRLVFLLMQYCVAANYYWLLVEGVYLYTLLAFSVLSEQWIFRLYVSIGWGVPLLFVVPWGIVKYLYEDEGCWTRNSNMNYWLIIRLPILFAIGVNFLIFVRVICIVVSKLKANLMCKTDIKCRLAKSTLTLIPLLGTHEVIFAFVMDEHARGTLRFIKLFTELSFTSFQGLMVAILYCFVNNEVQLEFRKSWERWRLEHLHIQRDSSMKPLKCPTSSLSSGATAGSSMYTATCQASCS
Sequence of G-protein coupled receptor 146 (Homo sapiens) (Q96CH1 whole entry): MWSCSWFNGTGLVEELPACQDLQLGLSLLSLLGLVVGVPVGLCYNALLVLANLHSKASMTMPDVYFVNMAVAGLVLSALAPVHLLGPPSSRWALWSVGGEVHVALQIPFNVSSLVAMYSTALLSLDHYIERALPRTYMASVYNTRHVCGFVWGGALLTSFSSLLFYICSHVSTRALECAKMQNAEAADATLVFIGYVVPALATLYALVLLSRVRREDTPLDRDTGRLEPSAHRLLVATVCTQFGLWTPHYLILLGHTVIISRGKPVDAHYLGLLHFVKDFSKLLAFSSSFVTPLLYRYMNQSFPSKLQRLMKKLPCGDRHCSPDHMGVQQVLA

| Compound | Activity [1] | Activity [2] | Activity [3] | Drug uptake [4] | Drug uptake [5] | Drug uptake [6] | Activity [7] | Activity [8] | Activity [9] | Activity [10] | Activity [11] | Activity [12] |
| --- | --- | --- | --- | --- | --- | --- | --- | --- | --- | --- | --- | --- |
| C[N+](C)(C)CCOC(N)=O | – | – | – | – | – | – | – | – | Active | Active | – | – |
| H-EVARQ-OH | – | inactive | inactive | Not Active | Not Active | Not Active | – | Active | – | – | Active | – |
| H-EGSLQ-OH | inactive | inactive | inactive | Not Active | Not Active | Not Active | Active | Active | – | – | – | – |

Next, values leading:

| Activity [1] | Activity [2] | Activity [3] | Drug uptake [4] | Drug uptake [5] | Drug uptake [6] | Activity [7] | Activity [8] | Activity [9] | Activity [10] | Activity [11] | Activity [12] | Compound |
| --- | --- | --- | --- | --- | --- | --- | --- | --- | --- | --- | --- | --- |
| inactive | inactive | inactive | Not Active | Not Active | Not Active | Active | Active | – | – | – | – | H-EVEDPQVEQLELGGSPGDLQTLALEVARQ-OH |
| inactive | inactive | inactive | Not Active | Not Active | Not Active | – | – | – | – | Active | inactive | CC(C)C[C@H](NC(=O)[C@H](C)NC(=O)[C@H](CC(C)C)NC(=O)[C@@H]1CCCN1C(=O)[C@H](CCC(N)=O)NC(=O)[C@H](CC(C)C)NC(=O)[C@H](CO)NC(=O)CNC(=O)[C@H](C)NC(=O)CNC(=O)[C@@H]1CCCN1C(=O)CNC(=O)CNC(=O)CNC(=O)[C@H](CC(C)C)NC(=O)[C@H](CCC(=O)O)NC(=O)[C@@H](NC(=O)[C@H](CCC(N)=O)NC(=O)CNC(=O)[C@@H](NC(=O)[C@H](CCC(N)=O)NC(=O)[C@H](CC(C)C)NC(=O)[C@H](CC(=O)O)NC(=O)[C@H](CCC(=O)O)NC(=O)[C@H](C)NC(=O)[C@@H](N)CCC(=O)O)C(C)C)C(C)C)C(=O)N[C@@H](CCC(=O)O)C(=O)NCC(=O)N[C@@H](CO)C(=O)N[C@@H](CC(C)C)C(=O)N[C@@H](CCC(N)=O)C(=O)O [HUMAN C-PEPTIDE] |
| inactive | inactive | inactive | Not Active | Not Active | Not Active | Active | Active | – | – | – | – | H-GADQPVGSEQQVQAGGLEGGLLLGLELPSEA-OH |
